# Experimental data taken from patent US20080161249A1, “Use of Novel Antibacterial Compounds” (SMITHKLINE BEECHAM CORPORATION, priority 2004, published 2008).
# Like-named read-outs stand apart in the source and are kept apart here.
# Experiments:
# [1] = system: representative S. aureus strains; assay: MIC against representative S. aureus strains, summary over strains; type: cell-based, Staphylococcus aureus
# Excerpt: (§1) Subinhibitory Concentrations of PDF Inhibitors Decrease the MICs of Macrolides against Representative S. aureus Strains
# (§2) Subinhibitory Concentrations of Macrolides Decrease the MICs of PDF Inhibitors against Representative S. aureus Strains
# S. aureus WCUH29 = assay: MIC against S. aureus WCUH29, alone and with subinhibitory concentrations of a second agent; type: cell-based, Staphylococcus aureus; conditions: for MIC: Staphylococcus aureus, WCUH29, S. aureus WCUH29
# S. aureus strain RN4220 = assay: MIC against S. aureus strain RN4220, alone and in combination; type: cell-based, Staphylococcus aureus; conditions: for MIC: Staphylococcus aureus
# S. aureus strain Smith = assay: MIC against S. aureus strain Smith, alone and in combination; type: cell-based, Staphylococcus aureus; conditions: for MIC: Staphylococcus aureus
# H. influenzae Q1 = assay: MIC against H. influenzae Q1, alone and with subinhibitory concentrations of a second agent; type: cell-based, Haemophilus influenzae;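 further: combinations paired PDF inhibitors with macrolides, one class added below its own MIC to test whether the MIC of the other class dropped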
# S. aureus strain Oxford = assay: MIC against S. aureus strain Oxford, alone and in combination; type: cell-based, Staphylococcus aureus; conditions: for MIC: Staphylococcus aureus
# Excerpt: as §1, §2
# S. aureus strain PK1 = assay: MIC against S. aureus strain PK1, alone and in combination; type: cell-based, Staphylococcus aureus; conditions: for MIC: Staphylococcus aureus
# Excerpt: as §1, §2
# [2] = S. aureus, text summary of Example 4
# [3] = no second agent, read-out: MIC, single agent
# [4] = single agent, read-out: MIC, Compound (1a) alone
# [5] = with ¼ MIC of Tylosin, read-out: MIC, Compound (1a) with ¼ MIC of Tylosin
# [6] = with ½ MIC of Tylosin, read-out: MIC, Compound (1a) with ½ MIC of Tylosin
# [7] = H. influenzae Q1, +0.25 ug/m Azithromycin
# [8] = H. influenzae Q1, +0.5 ug/mL Azithromycin
# [9] = S. aureus WCUH29, +0.5 ug/mL Compound (1a)
# [10] = S. aureus WCUH29, +1 ug/mL Compound (1a)
# [11] = macrolide alone, read-out: MIC, −Compound (1a)
# [12] = H. influenzae Q1, +0.5 ug/mL Compound (1a)
# [13] = H. influenzae Q1, +1 ug/mL Compound (1a)
smiles,measurement,setting,value
"CCCCC[C@H](CN(O)C=O)C(=O)NNc1nccc(C(F)(F)F)n1 [Compound (1a), N-hydroxy-N-{(R)-2-[N′-(4-trifluoromethyl-pyrimidin-2-yl)-hydrazinocarbonyl]-heptyl}-formamide]",decrease of MIC by subinhibitory concentrations of tylosin,[1]; Example 6,2-128 fold
same,Compound (1a) fold decrease MIC,"S. aureus WCUH29; S. aureus WCUH29, +Azithromycin 0.25 μg/ml {¼ × MIC}",[4] fold
same,Compound (1a) fold decrease MIC,"S. aureus WCUH29; S. aureus WCUH29, +Azithromycin 0.5 μg/ml {½ × MIC}",[8] fold
same,Compound (1a) fold decrease MIC,"S. aureus WCUH29; S. aureus WCUH29, +Ciprofloxacin 0.06 μg/ml {¼ × MIC}",[0] fold
same,Compound (1a) fold decrease MIC,"S. aureus WCUH29; S. aureus WCUH29, +Ciprofloxacin […] {½ × MIC}",[0] fold
same,Compound (1a) fold decrease MIC,"S. aureus WCUH29; S. aureus WCUH29, +Erythromycin 0.06 μg/ml {¼ × MIC}",[4] fold
same,Compound (1a) fold decrease MIC,"S. aureus WCUH29; S. aureus WCUH29, +Erythromycin […] {½ × MIC}",[8] fold
same,Compound (1a) fold decrease MIC,"S. aureus WCUH29; S. aureus WCUH29, +Tylosin 0.25 μg/ml {¼ × MIC}",[4] fold
same,Compound (1a) fold decrease MIC,"S. aureus WCUH29; S. aureus WCUH29, +Tylosin 0.5 μg/ml {½ × MIC}",[32] fold
same,decrease of MIC by subinhibitory concentrations of azithromycin,S. aureus WCUH29; [2],4-8 fold
same,decrease of MIC by subinhibitory concentrations of erythromycin,S. aureus WCUH29; [2],4-8 fold
same,decrease of MIC by subinhibitory concentrations of tylosin,S. aureus WCUH29; [2],4-32 fold
same,effect of subinhibitory concentrations of ciprofloxacin on antibacterial potency,S. aureus WCUH29; [2],no effect
same,MIC,"S. aureus WCUH29; +Azithromycin 0.25 μg/ml {¼ × MIC}, read-out: Compound (1a) MIC",0.5 µg/mL
same,MIC,"S. aureus WCUH29; +Azithromycin 0.5 μg/ml {½ × MIC}, read-out: Compound (1a) MIC",0.25 µg/mL
same,MIC,"S. aureus WCUH29; +Ciprofloxacin 0.06 μg/ml {¼ × MIC}, read-out: Compound (1a) MIC",2 µg/mL
same,MIC,"S. aureus WCUH29; +Ciprofloxacin […] {½ × MIC}, read-out: Compound (1a) MIC",2 µg/mL
same,MIC,"S. aureus WCUH29; +Erythromycin 0.06 μg/ml {¼ × MIC}, read-out: Compound (1a) MIC",0.5 µg/mL
same,MIC,"S. aureus WCUH29; +Erythromycin […] {½ × MIC}, read-out: Compound (1a) MIC",0.25 µg/mL
same,MIC,"S. aureus WCUH29; +Tylosin 0.25 μg/ml {¼ × MIC}, read-out: Compound (1a) MIC",0.5 µg/mL
same,MIC,"S. aureus WCUH29; +Tylosin 0.5 μg/ml {½ × MIC}, read-out: Compound (1a) MIC",0.06 µg/mL
same,MIC,S. aureus WCUH29; [3],2 µg/mL
same,MIC,S. aureus strain RN4220; [4],4 µg/mL
same,MIC,S. aureus strain RN4220; [5],0.25 µg/mL
same,MIC,S. aureus strain RN4220; [6],0.03 µg/mL
same,"fold decrease MIC, Compound (1a) with ¼ MIC of Tylosin",S. aureus strain RN4220; with ¼ MIC of Tylosin,[16] fold
same,"fold decrease MIC, Compound (1a) with ½ MIC of Tylosin",S. aureus strain RN4220; with ½ MIC of Tylosin,[128] fold
same,MIC,S. aureus strain Smith; [4],4 µg/mL
same,MIC,S. aureus strain Smith; [5],0.5 µg/mL
same,MIC,S. aureus strain Smith; [6],0.125 µg/mL
same,"fold decrease MIC, Compound (1a) with ¼ MIC of Tylosin",S. aureus strain Smith; with ¼ MIC of Tylosin,[8] fold
same,"fold decrease MIC, Compound (1a) with ½ MIC of Tylosin",S. aureus strain Smith; with ½ MIC of Tylosin,[32] fold
same,"MIC, antibiotic with 0.25 ug/m (¼ MIC) of Azithromycin",H. influenzae Q1; [7],1 µg/mL
same,"fold decrease MIC, antibiotic with 0.25 ug/m (¼ MIC) of Azithromycin",H. influenzae Q1; [7],[2] fold
same,"MIC, antibiotic with 0.5 ug/mL (½ MIC) of Azithromycin",H. influenzae Q1; [8],0.5 µg/mL
same,"fold decrease MIC, antibiotic with 0.5 ug/mL (½ MIC) of Azithromycin",H. influenzae Q1; [8],[4] fold
same,"MIC, antibiotic alone","H. influenzae Q1; H. influenzae Q1, single agent (Example 8)",2 µg/mL
same,MIC,S. aureus strain Oxford; [4],2 µg/mL
same,MIC,S. aureus strain Oxford; [5],1 µg/mL
same,MIC,S. aureus strain Oxford; [6],0.25 µg/mL
same,"fold decrease MIC, Compound (1a) with ¼ MIC of Tylosin",S. aureus strain Oxford; with ¼ MIC of Tylosin,[2] fold
same,"fold decrease MIC, Compound (1a) with ½ MIC of Tylosin",S. aureus strain Oxford; with ½ MIC of Tylosin,[8] fold
same,MIC,S. aureus strain PK1; [4],0.5 µg/mL
same,MIC,S. aureus strain PK1; [5],0.06 µg/mL
same,MIC,S. aureus strain PK1; [6],0.016 µg/mL
same,"fold decrease MIC, Compound (1a) with ¼ MIC of Tylosin",S. aureus strain PK1; with ¼ MIC of Tylosin,[8] fold
same,"fold decrease MIC, Compound (1a) with ½ MIC of Tylosin",S. aureus strain PK1; with ½ MIC of Tylosin,[32] fold
"CC[C@H]1OC(=O)C[C@@H](O)[C@H](C)[C@@H](O[C@@H]2O[C@H](C)[C@@H](O[C@H]3C[C@@](C)(O)[C@@H](O)[C@H](C)O3)[C@H](N(C)C)[C@H]2O)[C@@H](CC=O)C[C@@H](C)C(=O)/C=C/C(C)=C/[C@@H]1CO[C@@H]1O[C@H](C)[C@@H](O)[C@@H](OC)[C@H]1OC [Tylosin, tylosin]",decrease of MIC by subinhibitory concentrations of Compound (1a),[1]; text summary of Example 5,4-32 fold
same,"MIC, antibiotic with 0.5 ug/mL (¼ MIC) of Compound (1a)",S. aureus WCUH29; [9],0.25 µg/mL
same,"fold decrease MIC, antibiotic with 0.5 ug/mL (¼ MIC) of Compound (1a)",S. aureus WCUH29; [9],[4] fold
same,"MIC, antibiotic with 1 ug/mL (½ MIC) of Compound (1a)",S. aureus WCUH29; [10],0.125 µg/mL
same,"fold decrease MIC, antibiotic with 1 ug/mL (½ MIC) of Compound (1a)",S. aureus WCUH29; [10],[8] fold
same,"MIC, antibiotic alone","S. aureus WCUH29; S. aureus WCUH29, single agent",1 µg/mL
same,decrease of MIC by subinhibitory concentrations of Compound (1a),"S. aureus WCUH29; S. aureus, Example 3",4-8 fold
same,MIC,S. aureus WCUH29; [3],1 µg/mL
same,MIC,S. aureus strain RN4220; [11],1 µg/mL
same,"fold decrease MIC, +Compound (1a) [¼ × MIC]",S. aureus strain RN4220; with ¼ × MIC of Compound (1a),[8] fold
same,"MIC, +Compound (1a) [½ × MIC]",S. aureus strain RN4220; with ½ × MIC of Compound (1a),0.06 µg/mL
same,"fold decrease MIC, +Compound (1a) [½ × MIC]",S. aureus strain RN4220; with ½ × MIC of Compound (1a),[16] fold
same,MIC,S. aureus strain Smith; [11],1 µg/mL
same,"MIC, +Compound (1a) [¼ × MIC]",S. aureus strain Smith; with ¼ × MIC of Compound (1a),0.25 µg/mL
same,"fold decrease MIC, +Compound (1a) [¼ × MIC]",S. aureus strain Smith; with ¼ × MIC of Compound (1a),[4] fold
same,"MIC, +Compound (1a) [½ × MIC]",S. aureus strain Smith; with ½ × MIC of Compound (1a),0.125 µg/mL
same,"fold decrease MIC, +Compound (1a) [½ × MIC]",S. aureus strain Smith; with ½ × MIC of Compound (1a),[8] fold
same,"MIC, antibiotic with 0.5 ug/mL (¼ MIC) of Compound (1a)",H. influenzae Q1; [12],8 µg/mL
same,"fold decrease MIC, antibiotic with 0.5 ug/mL (¼ MIC) of Compound (1a)",H. influenzae Q1; [12],[2] fold
same,"MIC, antibiotic with 1 ug/mL (½ MIC) of Compound (1a)",H. influenzae Q1; [13],4 µg/mL
same,"fold decrease MIC, antibiotic with 1 ug/mL (½ MIC) of Compound (1a)",H. influenzae Q1; [13],[4] fold
same,"MIC, antibiotic alone","H. influenzae Q1; H. influenzae Q1, single agent (Example 7)",16 µg/mL
same,decrease of MIC by subinhibitory concentrations of Compound (1a),"H. influenzae Q1; H. influenzae, text summary of Example 7",2-4 fold
same,MIC,S. aureus strain Oxford; [11],0.5 µg/mL
same,"MIC, +Compound (1a) [¼ × MIC]",S. aureus strain Oxford; with ¼ × MIC of Compound (1a),0.06 µg/mL
same,"fold decrease MIC, +Compound (1a) [¼ × MIC]",S. aureus strain Oxford; with ¼ × MIC of Compound (1a),[8] fold
same,"MIC, +Compound (1a) [½ × MIC]",S. aureus strain Oxford; with ½ × MIC of Compound (1a),0.03 µg/mL
same,"fold decrease MIC, +Compound (1a) [½ × MIC]",S. aureus strain Oxford; with ½ × MIC of Compound (1a),[16] fold
same,MIC,S. aureus strain PK1; [11],2 µg/mL
same,"MIC, +Compound (1a) [¼ × MIC]",S. aureus strain PK1; with ¼ × MIC of Compound (1a),0.25 µg/mL
same,"fold decrease MIC, +Compound (1a) [¼ × MIC]",S. aureus strain PK1; with ¼ × MIC of Compound (1a),[8] fold
same,"MIC, +Compound (1a) [½ × MIC]",S. aureus strain PK1; with ½ × MIC of Compound (1a),0.06 µg/mL
same,"fold decrease MIC, +Compound (1a) [½ × MIC]",S. aureus strain PK1; with ½ × MIC of Compound (1a),[32] fold
